# In patent US10508085B2, “Compounds and methods for IDO and TDO modulation, and indications therefor” (Plexxikon Inc., priority 2016, dated 2019):
# What was measured:
# [1] = target: T1, Human Indoleamine 2,3-dioxygenase (IDO) (Homo sapiens, UniProt P14902); assay: Human IDO enzymatic assay (kynurenine level); type: biochemical; conditions: 6 nM IDO, 10 μM L-Trp; geometric mean; read-out: IDO1 GMean: IC50 (μM) (Biochemical Assay)
# T1 construct: His tag (N); made in house; host or cells: E. coli
# T1 sequence (P14902 whole entry): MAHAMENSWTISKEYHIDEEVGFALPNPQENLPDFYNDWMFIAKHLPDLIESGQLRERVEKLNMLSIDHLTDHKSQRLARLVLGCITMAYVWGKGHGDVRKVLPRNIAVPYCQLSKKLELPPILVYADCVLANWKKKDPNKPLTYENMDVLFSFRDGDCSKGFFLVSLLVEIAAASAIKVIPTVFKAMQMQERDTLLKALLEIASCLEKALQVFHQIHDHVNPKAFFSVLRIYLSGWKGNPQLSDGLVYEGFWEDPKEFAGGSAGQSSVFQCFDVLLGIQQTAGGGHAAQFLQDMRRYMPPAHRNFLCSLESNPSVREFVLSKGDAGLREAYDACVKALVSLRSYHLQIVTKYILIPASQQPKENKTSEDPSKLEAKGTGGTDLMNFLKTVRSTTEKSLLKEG
# In short: (§1)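 N-terminally His-tagged enzymes expressed in E. coli were run in 50 mM sodium phosphate pH 6.5 with 10 mM ascorbate, catalase and Tween 20. IDO: 6 nM enzyme, 10 μM L-Trp, 5 μM methylene blue, 20 min RT. TDO: 1 nM enzyme, 350 μM L-Trp, 0.4 μM methylene blue, 70 min RT.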
# [2] = target: T2, human TDO (TDO-expressing HEK293 cells) (Homo sapiens, UniProt P48775); assay: Cell based kynurenine assay, TDO-expressing HEK293 cell clones; conditions: TDO-expressing HEK293 cells, 24 hours, geometric mean; read-out: HEK293 TDO Kynurenine GMean IC50 (μM) (Cellular Assay)
# T2 construct: expressed in transfected cells
# T2 sequence (P48775 whole entry): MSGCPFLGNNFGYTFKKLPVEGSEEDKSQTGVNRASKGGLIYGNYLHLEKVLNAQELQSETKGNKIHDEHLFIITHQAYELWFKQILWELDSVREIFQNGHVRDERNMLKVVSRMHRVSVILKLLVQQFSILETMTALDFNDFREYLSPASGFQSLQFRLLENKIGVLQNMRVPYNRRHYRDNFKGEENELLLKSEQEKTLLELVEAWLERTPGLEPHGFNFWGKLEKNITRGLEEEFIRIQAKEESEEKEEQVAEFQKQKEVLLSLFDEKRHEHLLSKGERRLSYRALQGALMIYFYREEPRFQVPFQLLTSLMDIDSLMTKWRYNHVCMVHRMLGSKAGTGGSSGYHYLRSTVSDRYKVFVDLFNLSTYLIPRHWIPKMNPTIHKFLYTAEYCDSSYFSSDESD
# In short: (§2)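 HEK293 clones stably expressing human IDO1 or human TDO (CMV promoter), 2.5×10^4 cells/well, given serial compound dilutions for 24 h. Kynurenine measured in supernatant; inhibition relative to cell/0.2% DMSO and media-only controls. IC50 by nonlinear regression.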
# [3] = target: T3, Human Tryptophan 2,3-dioxygenase (TDO) (Homo sapiens, UniProt P48775); assay: Human TDO enzymatic assay (kynurenine level); type: biochemical; conditions: 1 nM TDO, 350 μM L-Trp; geometric mean; read-out: TDO GMean: IC50 (μM) (Biochemical Assay)
# T3 construct: His tag (N); made in house; host or cells: E. coli
# T3 sequence (P48775 whole entry): as above
# In short: as §1
# [4] = target: T4, human IDO (IDO1-expressing HEK293 cells) (Homo sapiens, UniProt P14902); assay: Cell based kynurenine assay, IDO1-expressing HEK293 cell clones; conditions: IDO1-expressing HEK293 cells, 24 hours, geometric mean; read-out: HEK293 IDO1 Kynurenine GMean IC50 (μM) (Cellular Assay)
# T4 construct: expressed in transfected cells
# T4 sequence (P14902 whole entry): as the sequence (P14902 whole entry) above
# In short: as §2
IC50 [1] [µM],IC50 [2] [µM],IC50 [3] [µM],IC50 [4] [µM],Compound
0.0001 to 10,0.0001 to 10,0.0001 to 10,0.0001 to 10,"CC(C)(C1CCN(C(=O)NCCC(F)(F)F)CC1)C(O)c1cc(Cl)cc2cn[nH]c12 (centres unmarked) [Compound P-0472, 4-(1-(5-chloro-1H-indazol-7-yl)-1-hydroxy-2-methylpropan-2-yl)-N-(3,3,3-trifluoropropyl) piperidine-1-carboxamide]"
0.0001 to 10,0.0001 to 10,0.0001 to 10,0.0001 to 10,"CC(C)(C1CCN(C(=O)NCC2CC2)CC1)C(O)c1cc(Cl)cc2cn[nH]c12 (centres unmarked) [Compound P-0473, 4-(1-(5-chloro-1H-indazol-7-yl)-1-hydroxy-2-methylpropan-2-yl)-N-(cyclopropylmethyl) piperidine-1-carboxamide]"
0.0001 to 10,0.0001 to 10,0.0001 to 10,0.0001 to 10,"CC(C)(C1CCN(C(=O)C2C(C)(C)C2(C)C)CC1)C(O)c1cc(Cl)cc2cn[nH]c12 (centres unmarked) [Compound P-0474, (4-(1-(5-chloro-1H-indazol-7-yl)-1-hydroxy-2-methylpropan-2-yl)piperidin-1-yl)(2,2,3,3-tetramethylcyclopropyl) methanone]"
0.0001 to 10,0.0001 to 10,0.0001 to 10,0.0001 to 10,"CC(C)(O)CNC(=O)N1CCC(C(C)(C)C(O)c2cc(Cl)cc3cn[nH]c23)CC1 (centres unmarked) [Compound P-0475, 4-(1-(5-chloro-1H-indazol-7-yl)-1-hydroxy-2-methylpropan-2-yl)-N-(2-hydroxy-2-methylpropyl) piperidine-1-carboxamide]"
0.0001 to 10,0.0001 to 10,0.0001 to 10,0.0001 to 10,"CC(C)(C1CCN(C(=O)NCCO)CC1)C(O)c1cc(Cl)cc2cn[nH]c12 (centres unmarked) [Compound P-0476, 4-(1-(5-chloro-1H-indazol-7-yl)-1-hydroxy-2-methylpropan-2-yl)-N-(2-hydroxyethyl) piperidine-1-carboxamide]"
0.0001 to 10,0.0001 to 10,0.0001 to 10,0.0001 to 10,"CC(C)(C1CCN(C(=O)NCc2ccccn2)CC1)C(O)c1cc(Cl)cc2cn[nH]c12 (centres unmarked) [Compound P-0477, 4-(1-(5-chloro-1H-indazol-7-yl)-1-hydroxy-2-methylpropan-2-yl)-N-(pyridin-2-ylmethyl)piperidine-1-carboxamide]"
0.0001 to 10,0.0001 to 10,0.0001 to 10,0.0001 to 10,"C[C@H](NC(=O)N1CCC(C(C)(C)C(O)c2cc(Cl)cc3cn[nH]c23)CC1)c1ccccn1 (stereo partly drawn) [Compound P-0478, 4-(1-(5-chloro-1H-indazol-7-yl)-1-hydroxy-2-methylpropan-2-yl)-N-((S)-1-(pyridin-2-yl)ethyl)piperidine-1-carboxamide]"
0.0001 to 10,0.0001 to 10,0.0001 to 10,0.0001 to 10,"C[C@@H](NC(=O)N1CCC(C(C)(C)C(O)c2cc(Cl)cc3cn[nH]c23)CC1)c1ccccn1 (stereo partly drawn) [Compound P-0479, 4-(1-(5-chloro-1H-indazol-7-yl)-1-hydroxy-2-methylpropan-2-yl)-N-((R)-1-(pyridin-2-yl)ethyl)piperidine-1-carboxamide]"
0.0001 to 10,0.0001 to 10,0.0001 to 10,0.0001 to 10,"O=C(CC1CCOCC1)N1CCC(C(F)(F)C(O)c2cc(Cl)cc3cn[nH]c23)CC1 (centres unmarked) [Compound P-0480, 1-(4-(2-(5-chloro-1H-indazol-7-yl)-1,1-difluoro-2-hydroxyethyl)piperidin-1-yl)-2-(tetrahydro-2H-pyran-4-yl)ethan-1-one]"
0.0001 to 10,> 10,0.0001 to 10,0.0001 to 10,"O=C(CC1CCS(=O)(=O)CC1)N1CCC(C(F)(F)C(O)c2cc(Cl)cc3cn[nH]c23)CC1 (centres unmarked) [Compound P-0481, 1-(4-(2-(5-chloro-1H-indazol-7-yl)-1,1-difluoro-2-hydroxyethyl)piperidin-1-yl)-2-(1,1-dioxidotetrahydro-2H-thiopyran-4-yl)ethan-1-one]"
0.0001 to 10,0.0001 to 10,0.0001 to 10,0.0001 to 10,"O=C(NCC1COC1)N1CCC(C(F)(F)C(O)c2cc(Cl)cc3cn[nH]c23)CC1 (centres unmarked) [Compound P-0482, 4-(2-(5-chloro-1H-indazol-7-yl)-1,1-difluoro-2-hydroxyethyl)-N-(oxetan-3-ylmethyl)piperidine-1-carboxamide]"
0.0001 to 10,0.0001 to 10,0.0001 to 10,0.0001 to 10,"N#Cc1ccc(NC(=O)N2CCC(C(F)(F)C(O)c3cc(Cl)cc4cn[nH]c34)CC2)cc1 (centres unmarked) [Compound P-0483, 4-(2-(5-chloro-1H-indazol-7-yl)-1,1-difluoro-2-hydroxyethyl)-N-(4-cyanophenyl) piperidine-1-carboxamide]"
0.0001 to 10,0.0001 to 10,0.0001 to 10,0.0001 to 10,"O=C(Nc1ccc(Cl)cc1)N1CCC(C(F)(F)C(O)c2cc(Cl)cc3cn[nH]c23)CC1 (centres unmarked) [Compound P-0484, 4-(2-(5-chloro-1H-indazol-7-yl)-1,1-difluoro-2-hydroxyethyl)-N-(4-chlorophenyl) piperidine-1-carboxamide]"
0.0001 to 10,> 10,0.0001 to 10,0.0001 to 10,"O=C(CN1CCS(=O)(=O)CC1)N1CCC(C(F)(F)C(O)c2cc(Cl)cc3cn[nH]c23)CC1 (centres unmarked) [Compound P-0485, 1-(4-(2-(5-chloro-1H-indazol-7-yl)-1,1-difluoro-2-hydroxyethyl)piperidin-1-yl)-2-(1,1-dioxidothiomorpholino) ethan-1-one]"
0.0001 to 10,0.0001 to 10,0.0001 to 10,0.0001 to 10,"CC(C)(C1CCN(C(=O)CN2CCCS2(=O)=O)CC1)C(O)c1cc(Cl)cc2cn[nH]c12 (centres unmarked) [Compound P-0486, 1-(4-(1-(5-chloro-1H-indazol-7-yl)-1-hydroxy-2-methylpropan-2-yl)piperidin-1-yl)-2-(1,1-dioxidoisothiazolidin-2-yl)ethan-1-one]"
0.0001 to 10,0.0001 to 10,0.0001 to 10,0.0001 to 10,"CC(C)(C1CCN(C(=O)CN2CCS(=O)(=O)CC2)CC1)C(O)c1cc(Cl)cc2cn[nH]c12 (centres unmarked) [Compound P-0487, 1-(4-(1-(5-chloro-1H-indazol-7-yl)-1-hydroxy-2-methylpropan-2-yl)piperidin-1-yl)-2-(1,1-dioxidothiomorpholino) ethan-1-one]"
0.0001 to 10,0.0001 to 10,0.0001 to 10,0.0001 to 10,"O=C(Nc1cccc(Cl)c1)N1CCC(C(F)(F)C(O)c2cc(Cl)cc3cn[nH]c23)CC1 (centres unmarked) [Compound P-0488, 4-(2-(5-chloro-1H-indazol-7-yl)-1,1-difluoro-2-hydroxyethyl)-N-(3-chlorophenyl) piperidine-1-carboxamide]"
0.0001 to 10,0.0001 to 10,0.0001 to 10,0.0001 to 10,"O=C(CN1CCCS1(=O)=O)N1CCC(C(F)(F)C(O)c2cc(Cl)cc3cn[nH]c23)CC1 (centres unmarked) [Compound P-0489, 1-(4-(2-(5-chloro-1H-indazol-7-yl)-1,1-difluoro-2-hydroxyethyl)piperidin-1-yl)-2-(1,1-dioxidoisothiazolidin-2-yl)ethan-1-one]"
0.0001 to 10,0.0001 to 10,0.0001 to 10,0.0001 to 10,"CC(C)(C)OC(=O)N1CCC(C(F)(F)C(O)c2c3c(cc4cn[nH]c24)CC3)CC1 (centres unmarked) [Compound P-0490, tert-butyl 4-(2-(5,6-dihydro-1H-cyclobuta[f]indazol-7-yl)-1,1-difluoro-2-hydroxyethyl) piperidine-1-carboxylate]"
0.0001 to 10,0.0001 to 10,0.0001 to 10,0.0001 to 10,"CN1CCN(Cc2ccc(NC(=O)N3CCC(C(C)(C)C(O)c4cc(Cl)cc5cn[nH]c45)CC3)cc2)CC1 (centres unmarked) [Compound P-0491, 4-(1-(5-chloro-1H-indazol-7-yl)-1-hydroxy-2-methylpropan-2-yl)-N-(4-((4-methylpiperazin-1-yl)methyl)phenyl) piperidine-1-carboxamide]"
0.0001 to 10,0.0001 to 10,0.0001 to 10,0.0001 to 10,"CC(C)(C1CCN(C(=O)NCCN2CCCS2(=O)=O)CC1)C(O)c1cc(Cl)cc2cn[nH]c12 (centres unmarked) [Compound P-0492, 4-(1-(5-chloro-1H-indazol-7-yl)-1-hydroxy-2-methylpropan-2-yl)-N-(2-(1,1-dioxidoisothiazolidin-2-yl)ethyl)piperidine-1-carboxamide]"
0.0001 to 10,0.0001 to 10,0.0001 to 10,0.0001 to 10,"CC(C)(C1CCN(C(=O)NCCNS(C)(=O)=O)CC1)C(O)c1cc(Cl)cc2cn[nH]c12 (centres unmarked) [Compound P-0493, 4-(1-(5-chloro-1H-indazol-7-yl)-1-hydroxy-2-methylpropan-2-yl)-N-(2-(methylsulfonamido)ethyl)piperidine-1-carboxamide]"
0.0001 to 10,0.0001 to 10,0.0001 to 10,0.0001 to 10,"O=C(Cc1ccc(Cl)cc1)N1CCC(C(F)(F)C(O)c2cc(Cl)cc3cn[nH]c23)CC1 (centres unmarked) [Compound P-0494, 1-(4-(2-(5-chloro-1H-indazol-7-yl)-1,1-difluoro-2-hydroxyethyl)piperidin-1-yl)-2-(4-chlorophenyl)ethan-1-one]"
